Columns and labels:
Type in all cases: in vivo
Settings in all cases: 50 ppm, 100 = 100% disease control, 0 = no control
Phakopsora pachyrhizi = assay: Test D: Asian soybean rust, preventive spray on soybean seedlings
In short: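 Compounds in acetone/water (50/50) with 250 ppm PEG400, dosed in ppm, sprayed to run-off on soybean seedlings; inoculated with P. pachyrhizi spores next day. Held 24 h at 22 °C in saturated air, then 8 days at 22 °C; visual rating of disease control, 0–100, relative to untreated controls.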

[1] = tested on: Puccinia recondita f. sp. tritici; assay: Test B: wheat leaf rust, preventive spray on wheat seedlings
In short: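 Preventive test: compound in acetone/water 50/50 with 250 ppm PEG400 was sprayed onto wheat seedlings one day before inoculation with leaf rust spores. After 24 h in saturated air and 7 days in a growth chamber, both at 20 °C, disease control was scored from 0 to 100 against controls.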

Septoria tritici = assay: Test A: wheat leaf blotch, preventive spray on wheat seedlings
In short: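 Preventive test: one day after spraying seedlings to run-off (concentrations in ppm; acetone/water, 250 ppm PEG400), Septoria tritici spores applied. Scored after 48 h humid incubation at 24 °C plus 17 days at 20 °C, as percent disease control versus untreated controls (100 = full control).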

Alternaria solani = assay: Test F: tomato early blight, preventive spray on tomato seedlings
In short: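 Preventive test: one day after the compound spray, seedlings were inoculated with A. solani, incubated saturated at 27 °C for 48 h, then kept at 20 °C for 3 days. Test suspensions contained acetone/water 50/50 with 250 ppm PEG400 surfactant. Visual ratings run from 0 (no control) to 100 (full control).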

[2] = tested on: Blumeria graminis f. sp. tritici; assay: Test C: wheat powdery mildew, preventive spray on wheat seedlings
In short: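 Preventive test: inoculation with spore dust came one day after spraying seedlings to run-off with ppm suspensions in acetone/water (50/50) plus 250 ppm PEG400 surfactant. Visual ratings after 8 days' incubation at 20° C give percent disease control relative to controls.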

Botrytis cinerea = assay: Test E: tomato Botrytis, preventive spray on tomato seedlings
In short: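 Preventive test: seedlings sprayed to run-off with compound in acetone/water (50/50) plus 250 ppm PEG400, inoculated one day later with B. cinerea spores. Held 48 h saturated at 20° C, then 3 days at 24° C; disease control scored visually from 0 to 100 versus controls.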

Row | Structure (SMILES) | Test D disease control rating (Phakopsora pachyrhizi) [%] | Test B disease control rating [1] [%] | Test A disease control rating (Septoria tritici) [%] | Test F disease control rating (Alternaria solani) [%] | Test C disease control rating [2] [%] | Test E disease control rating (Botrytis cinerea) [%]
1 | Cc1nn(C)c(Nc2c(F)cccc2[N+](=O)[O-])c1-c1ccc(Cl)cc1Cl [compound 69] | 77 | 100 | 100 | 99 | 97 | 100
2 | Cc1nn(C)c(Nc2c(F)cccc2[N+](=O)[O-])c1-c1c(F)cccc1F [compound 63] | 0 | 99 | 100 | 96 | 86 | 100
3 | Cc1nn(C)c(Nc2ccc(F)cc2[N+](=O)[O-])c1-c1ccc(F)cc1Br [compound 20] | 0 | 89 | 100 | 26 | 92 | 99
4 | Cc1nn(C)c(Nc2c(F)cc(Cl)cc2[N+](=O)[O-])c1-c1ccc(F)cc1Br [compound 131] | 80 | 100 | 100 | 100 | 99 | 99
5 | Cc1cc(F)c(Nc2c(-c3ccc(F)cc3Br)c(C)nn2C)c([N+](=O)[O-])c1 [compound 40] | 82 | 100 | 100 | 100 | 100 | 98
6 | COc1cc(F)c(Nc2c(-c3ccc(Cl)cc3Cl)c(C)nn2C)c([N+](=O)[O-])c1 [compound 138] | 67 | 100 | 100 | 100 | 93 | 99
7 | Cc1nn(C)c(Nc2c(F)cccc2[N+](=O)[O-])c1-c1c(F)cc(F)cc1F [compound 62] | 100 | 100 | 100 | 99 | 100 | 99
8 | COc1ccc(-c2c(C)nn(C)c2Nc2c(F)cccc2[N+](=O)[O-])c(Cl)c1 [compound 27] | 87 | 100 | 100 | 99 | 91 | 100
9 | Cc1nn(C)c(Nc2c(F)cc(Cl)cc2[N+](=O)[O-])c1-c1ccc(Cl)cc1Cl [compound 11] | 0 | 98 | 100 | 99 | 97 | 98
10 | COc1ccc(Nc2c(-c3ccc(Cl)cc3Cl)c(C)nn2C)c([N+](=O)[O-])c1 [compound 142] | 25 | 91 | 100 | 80 | 39 | 99
11 | Cc1cc(Cl)c(Nc2c(-c3c(F)cccc3Cl)c(C)nn2C)c([N+](=O)[O-])c1 [compound 24] | 0 | 89 | 100 | 0 | 0 | 97
12 | Cc1nn(C)c(Nc2cccc(Cl)c2[N+](=O)[O-])c1-c1c(F)cccc1F [compound 99] | 0 | 0 | 99 | 0 | 0 | 24
13 | COc1ccc(-c2c(C)nn(C)c2Nc2c(F)cc(C)cc2[N+](=O)[O-])c(Cl)c1 [compound 188] | 84 | 100 | 100 | 100 | 94 | 100
14 | Cc1nn(C)c(Nc2c(Cl)cc(F)cc2[N+](=O)[O-])c1-c1ccc(F)cc1Br [compound 43] | 65 | 100 | 100 | 64 | 97 | 96
15 | Cc1nn(C)c(Nc2c(F)cc(I)cc2[N+](=O)[O-])c1-c1ccc(F)cc1Cl [compound 47] | 92 | 97 | 100 | 96 | 89 | 95
16 | Cc1cccc([N+](=O)[O-])c1Nc1c(-c2c(F)cc(F)cc2Cl)c(C)nn1C [compound 153] | 73 | 100 | 99 | 72 | 99 | 99
17 | Cc1nn(C)c(Nc2ccccc2[N+](=O)[O-])c1-c1ccc(F)cc1F [compound 190] | 0 | 32 | 100 | 9 | 91 | 100
18 | Cc1cccc([N+](=O)[O-])c1Nc1c(-c2ccc(F)cc2Cl)c(C)nn1C [compound 117] | 0 | 100 | 99 | 76 | 95 | 99
19 | Cc1nn(C)c(Nc2c(Cl)cccc2[N+](=O)[O-])c1-c1ccc(Cl)cc1Cl [compound 133] | 0 | 86 | 100 | 0 | 0 | 97
20 | COc1ccc(-c2c(C)nn(C)c2Nc2c(C)cccc2[N+](=O)[O-])c(Cl)c1 [compound 183] | 0 | 99 | 100 | 58 | 78 | 100
21 | Cc1cc(Cl)cc([N+](=O)[O-])c1Nc1c(-c2ccc(F)cc2Cl)c(C)nn1C [compound 33] | 92 | 100 | 100 | 85 | 99 | 99
22 | Cn1nc(C#N)c(-c2ccc(F)cc2Cl)c1Nc1c(F)cccc1[N+](=O)[O-] [compound 122] | 0 | 100 | 100 | 99 | 94 | 100
23 | Cc1nn(C)c(Nc2c(Cl)cccc2[N+](=O)[O-])c1-c1c(F)cccc1F [compound 77] | 73 | 100 | 100 | 9 | 95 | 72
24 | Cc1cccc([N+](=O)[O-])c1Nc1c(-c2ccc(F)cc2F)c(C)nn1C [compound 177] | 0 | 97 | 100 | 9 | 50 | 100
25 | COc1ccc(Nc2c(-c3c(F)cccc3Cl)c(C)nn2C)c([N+](=O)[O-])c1 [compound 197] | 0 | 99 | 100 | 98 | 93 | 98
26 | COc1cc(Cl)c(Nc2c(-c3ccc(F)cc3Cl)c(C)nn2C)c([N+](=O)[O-])c1 [compound 80] | 50 | 100 | 100 | 98 | 97 | 95

Reference: patent US20230148599A1, “FUNGICIDAL MIXTURES CONTAINING PYRAZOLE DERIVATIVES” (FMC Corporation, priority 2020, published 2023)
